In this assay the target is Gal-3 (Homo sapiens, UniProt P17931). Conditions: for Galectin-3 (BAL) raw data, Mean (SD): Day 14. Here is the method:
All patients, investigators, sites and study sponsor personnel were blinded to the study group assignments throughout the study. Patients underwent study-specific assessments on days 2, 3, 7, 14 and 15, and a post-study assessment was carried out 26–30 days after the last day of the study period. Assessments included vital signs (supine blood pressure, pulse, oxygen saturation, oral temperature and respiratory rate), spirometry, 12-lead ECG, physical examination, laboratory safety screen (haematology, biochemistry, urinalysis and urinary drugs of abuse screen) and blood sampling for PK measurements. All adverse events and concomitant medications were recorded from the time of the screening visit until the post-study follow-up visit. BAL was performed at day −1 (24 h before the first dose) and at day 14 (2 h after the last dose). The BAL procedure was performed as per international guidelines. Briefly, 240 mL of 0.9% saline at room temperature was instilled in 40 mL aliquots into the right middle lobe and aspirated by suction after each aliquot.
BAL cells were separated from fluid by centrifugation, and cells were collected, stained with antibodies (supplementary material) and then fixed before analysis using a LSR Fortessa flow cytometer (Becton Dickinson, Franklin Lakes, NJ, USA). Data were analysed using FlowJo software (Tree Star, Ashland, OR, USA). Macrophages were identified as having high side scatter properties and human leukocyte antigen-DR positivity. Gal-3 expression (mean fluorescence intensity) was determined from the macrophage gate (supplementary figures S1 and S2). […] Samples were analysed by magnetic Luminex assay (R&D Systems, Minneapolis, MN, USA) or ELISA.
For part 2 of the study, placebos were combined from the three dose-specific cohorts into a pooled control group (n=9). For alveolar macrophage Gal-3 expression and the plasma biomarkers, ANCOVA was performed for percentage of baseline ((day 14/day 1)×100). The ANCOVA model included effects for treatment group and baseline (day 1) value. […] An additional analysis including dose as a continuous covariate was also performed. The Pearson correlation coefficient (r) and associated p-value were calculated for percentage of baseline and day 14 values between plasma biomarkers and alveolar macrophage Gal-3 expression. […] The analysis is exploratory and there was no pre-planned adjustment for multiple testing; the study was not powered for this. Alveolar macrophage Gal-3 expression was considered the primary exploratory analysis with the pre-selected biomarkers secondary. A Bonferroni correction for multiple testing of the secondary end-points comparing the 10 mg group with placebo gives a critical value of 0.0063. Data are presented as the difference in least square means with 95% confidence interval and p-value unless otherwise stated. All analyses were performed using SAS version 9.4 (SAS Institute, Cary, NC, USA).
BAL cells were separated from fluid by centrifugation and BAL cells were collected, stained with antibodies then fixed before analysis using a LSRFortessa™ flow cytometer (Becton Dickinson, NJ, USA). Data were analysed using FlowJo software (Becton Dickinson, NJ, USA). After exclusion of doublets and debris a sequential gating strategy was employed to identify cell populations based on surface marker expression. The antibodies used were Gal-3-FITC, CD19-PE, HLA-DR PEcy7, CD14-APC, CD16-pacific-blue, CD11b perCPcy5.5, […]
Biolegend except Gal-3-FITC which was from Cedarlane. Macrophages were identified as having high side scatter properties and HLA-DR positivity. Gal-3 expression (mean fluorescence intensity, MFI) was determined from the macrophage gate. Macrophage subsets were classed as M1, M2a and M2c based on the relative expression of CD206 and CD163 as […]
ve gate the relative % of neutrophils (CD19-/CD16+), B cells (CD19+), natural killer (NK) cells (CD56+), NK T-cells (NKT) cells (CD56+/CD3+), CD4 T cells (CD3+/CD4+) and CD8 T cells

Read-outs that look alike come from different tables or passages of the source.

Gal-3, sequence (P17931 whole entry): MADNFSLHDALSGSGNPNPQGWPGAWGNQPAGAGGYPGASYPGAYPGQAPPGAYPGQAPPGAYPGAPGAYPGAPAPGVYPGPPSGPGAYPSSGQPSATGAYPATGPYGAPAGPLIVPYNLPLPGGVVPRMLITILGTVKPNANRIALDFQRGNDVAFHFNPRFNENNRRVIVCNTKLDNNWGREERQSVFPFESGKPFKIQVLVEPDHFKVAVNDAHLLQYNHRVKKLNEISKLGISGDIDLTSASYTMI

`OC[C@H]1O[C@@H](S[C@@H]2O[C@H](CO)[C@H](O)[C@H](n3cc(-c4cccc(F)c4)nn3)[C@H]2O)[C@H](O)[C@@H](n2cc(-c3cccc(F)c3)nn2)[C@H]1O` [TD139]: the “Gal-3 expression on BAL macrophages, percentage of baseline at day 14, difference compared with placebo” value by setting is: (3 mg dose group) −38.66%; (10 mg dose group) −44.63%. Besides, for the setting “BAL macrophages, 10 mg vs placebo”, the “Gal-3 (BAL) Bayesian probability of effect” value worked out at 99.14. Besides, for the setting “BAL macrophages, 10 mg vs placebo, ANCOVA”, the “Gal-3 (BAL) difference in least square means % baseline (95% CI)” value is −44.6 (−80.4– −8.8) % baseline. Further, the “Galectin-3 (BAL) raw data, Mean (SD)” value by setting is: (IPF patients, BAL macrophages, 0.3 mg) 7794.8 (2990.48) pg/ml; (IPF patients, BAL macrophages, 3 mg) 8058.6 (3001.05) pg/ml; (IPF patients, BAL macrophages, 10 mg) 5237 (2033.86) pg/ml. In addition, the “Gal-3 (BAL) least square means % baseline±SEM” value was 67.9±12.1 % baseline (IPF patients, BAL macrophages, day 14, 0.3 mg once daily); 43.0±11.7 % baseline (IPF patients, BAL macrophages, day 14, 3 mg once daily); 37.1±13.5 % baseline (IPF patients, BAL macrophages, day 14, 10 mg once daily). In addition, the “Galectin-3 (BAL), analysis including dose as a continuous covariate: Estimate” value (IPF patients, BAL macrophages, percentage of baseline) was -4.19. The “correlation between TD139 in AMs and percentage of baseline in surface macrophage Gal-3 (r)” value (IPF patients, day 14) is −0.63 (95% CI −0.86– −0.18). The “Emax (AM surface Gal-3 percentage of baseline)” value (fitted maximum effect model vs macrophage TD139 concentration, (95% CI)) is 4.5 (−44.0–35.9).

The record behind these values is PMC8156151 (The European Respiratory Journal, 2021).
